{"source": "BindingDB's records for doi:10.1021/jm981078h", "about": "(Leiden University, 1999)"}
{"target": "Asialoglycoprotein receptor 1 (Rattus norvegicus) (UniProt P02706)", "sequence (P02706 whole entry, looked up)": "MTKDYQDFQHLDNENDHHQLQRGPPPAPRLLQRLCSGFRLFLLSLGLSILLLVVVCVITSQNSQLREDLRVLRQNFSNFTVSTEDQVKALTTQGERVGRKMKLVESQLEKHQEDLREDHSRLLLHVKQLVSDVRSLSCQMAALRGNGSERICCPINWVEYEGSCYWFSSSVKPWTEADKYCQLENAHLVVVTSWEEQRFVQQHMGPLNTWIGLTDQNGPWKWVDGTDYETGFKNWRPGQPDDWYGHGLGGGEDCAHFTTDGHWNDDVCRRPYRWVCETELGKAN", "assay": "Affinity tested by in vitro competition assay of [125I]ASOR binding to parenchymal rat liver cells", "units": {"Ki": "nM"}}
{"compound": "O=C(CCCCO[C@@H]1O[C@@H](CO)[C@H](O)[C@H](O)[C@@H]1O)NCC(=O)NCCCC(=O)OCC(COC(=O)CCCNC(=O)CNC(=O)CCCCO[C@@H]1O[C@@H](CO)[C@H](O)[C@H](O)[C@@H]1O)(COC(=O)CCCNC(=O)CNC(=O)CCCCO[C@@H]1O[C@@H](CO)[C@H](O)[C@H](O)[C@@H]1O)NC(=O)CNC(=O)OCc1ccccc1", "note": "[Galactoside analogue]", "Ki": 93}
{"compound": "O=C(CCCCO[C@@H]1O[C@@H](CO)[C@H](O)[C@H](O)[C@@H]1O)NCCCNC(=O)CCOCC(COCCC(=O)NCCCNC(=O)CCCCO[C@@H]1O[C@@H](CO)[C@H](O)[C@H](O)[C@@H]1O)(COCCC(=O)NCCCNC(=O)CCCCO[C@@H]1O[C@@H](CO)[C@H](O)[C@H](O)[C@@H]1O)NC(=O)CNC(=O)OCc1ccccc1", "note": "[Galactoside analogue]", "Ki": 93}
{"compound": "CC(C)CCCC(C)[C@H]1CC[C@H]2[C@@H]3CC=C4C[C@@H](OC(=O)CNC(=O)CCCCC(=O)NCC(=O)NC(COCOCCOCCOCCOCCO[C@@H]5O[C@@H](CO)[C@H](O)[C@H](O)[C@@H]5O)(COCOCCOCCOCCOCCO[C@@H]5O[C@@H](CO)[C@H](O)[C@H](O)[C@@H]5O)COCOCCOCCOCCOCCO[C@@H]5O[C@@H](CO)[C@H](O)[C@H](O)[C@@H]5O)CC[C@]4(C)[C@H]3CC[C@]12C", "note": "(stereo partly drawn) [TG(20)C-Galactoside analogue]", "Ki": 200}
